Results reported in US10881749B2, “Probes and methods of imaging a bacterial infection” (The Board of Trustees of the Leland Stanford Junior …, priority 2015, dated 2021).

Columns and labels:
E. coli [1] = test: PET/CT imaging of E. coli infection in thigh muscle of nude mice; assay type: in vivo; details: for route of clearance: mice, intravenous (tail vein)
Experimental: FIGS. 1.1A-B show PET/CT scan of a mouse that had been injected with 200 μCi of 6″-[^18F]-fluoromaltotriose. The arrow indicates the site of infection.
(§1) 6″-[^18F]-fluoromaltotriose (FIG. 1.1B) was synthesized. The uptake of 6″-[^18F]-fluoromaltotriose was evaluated in E. coli. […] The uptake in E. coli could also be blocked by a co-incubation with 1 mM of cold maltose (98% blocking, p<0.0003), the natural substrate of the transporter, confirming that the tracer was a substrate of the bacterial maltose transporter. 10^8 colony-forming units (CFU) of E. coli was then inoculated in the right thigh muscle of nude mice (n=4). […] The route of clearance of the tracer is renal which makes it suitable for clinical translation.

E. coli [2] = test: Uptake of tracer in E. coli bacterial culture, with maltose competition; assay type: cell-based, Escherichia coli; details: for blocking of uptake in E. coli by co-incubation with cold maltose: co-incubation with 1 mM of cold maltose, p<0.0003; for accumulation (uptake) of tracer in E. coli over time: in vitro bacterial culture
Experimental: FIG. 2.1 is a graph showing uptake of 6″-[^18F]fluoromaltotriose in vitro in E coli at 15 minutes, 30 minutes, and 30 minutes with 1 mM of maltose.
as §1, with “(n=4). 24 h later, 200 uCi of the 6″-[^18F]-fluoromaltotriose was administered via tail vein and dynamic PET/CT scans were obtained over the course of one hour.” for “(n=4).”
In regard to FIG. 5.1A, 6″-[^18F]fluoromaltotriose was synthesized from precursor per-O-acetyl-6″-deoxy-6″-nosyl-maltotriose (1). Precursor 1 was prepared from per-O-acetyl-6″-hydroxymaltotriose via a nosylation reaction. This method utilizes the reaction between the leaving group nosylate in precursor 1 and anhydrous [^18F]KF/Kryptofix 2.2.2 in acetonitrile at 85° C. for 15 min to give per-O-acetyl-6″-deoxy-6″-[^18F]fluoromaltotriose (2). Basic hydrolysis of the acetyl protecting groups in 2 yielded 6″-[^18F]fluoromaltotriose (3). Also, cold 6″-fluoromaltotriose (for comparison with 6″ [^18F]fluoromatotriose) was prepared from per-O-acetyl-6-hydroxymaltotriose via a DAST reaction followed by a basic hydrolysis. Escherichia-coli uptake of 6″-[^18F]fluoromaltotriose was evaluated in bacterial culture.
We have successfully synthesized 6″-[^18F]fluoromaltotriose in 4-7% radiochemical yield (decay corrected) with 95% chemical and radio-chemical purities. Total synthesis time was 125 min. […] This observation is consistent with 6″-[^18F]fluoromaltotriose being recognized and transported by the bacteria in a manner similar to maltose.

[3] = Biodistribution and pharmacokinetics in mice; assay type: in vivo; details: FIG. 3.1
From the text: FIG. 3.1 illustrates a graph comparing the biodistribution and pharmacokinetics of 6-fluoromaltose and 6″-fluoromaltotriose in mice.
FIG. 3.1, example 3, illustrates a graph comparing the biodistribution and pharmacokinetics of 6-fluoromaltose and 6″-Fluoromaltotriose in mice.

[4] = listed as 6″-[^18F]fluoromaltotriose

OC[C@H]1O[C@H](O[C@H]2[C@H](O)[C@@H](O)C(O)O[C@@H]2CO)[C@H](O)[C@@H](O)[C@@H]1O[C@H]1O[C@H](C[18F])[C@@H](O)[C@H](O)[C@H]1O (some centres unmarked) [6″-[^18F]-fluoromaltotriose, 6″-[^18F]fluoromaltotriose]
imaging of viable bacteria (E. coli [1]; 2 hours after implantation (FIG. 1.2)): can image 10^8 CFU of viable bacteria | accumulation of tracer at the site of infection (PET/CT image) (E. coli [1]; PET/CT image at 1 hour, 24 h after inoculation): clearly accumulated in the infected leg | uptake in infected muscle relative to contra-lateral muscle (E. coli [1]; ROI analysis, PET/CT, p<0.05): 3.1 fold | route of clearance (E. coli [1]): renal | route of clearance (E. coli [1]; [4]): predominantly renal clearance | average uptake in infected muscle (ROI analysis) (E. coli [1]; nude mice, 10^8 CFU E. coli in right thigh muscle, 24 h later 200 uCi via tail vein, PET/CT at 1 hour, mean±SD): 4.7±1.3 % ID/g | blocking of uptake in E. coli by co-incubation with cold maltose (E. coli [2]): 98% | blocking of uptake in E. coli by co-incubation with cold maltose (E. coli [2]; [4]): 90% | accumulation (uptake) of tracer in E. coli over time (E. coli [2]): increased over time | accumulation (uptake) of tracer in E. coli over time (E. coli [2]; listed as 6″-[^19F]fluoromaltotriose): time dependent | tissue uptake as compared to first generation tracer 6-fluoromaltose [3]: reduced blood, heart, liver, lung and muscle uptake
